{"source": "patent US9353185B2", "about": "“Antibodies” (Affitech Research AS, priority 2010, dated 2016)", "origin": "cited, not measured here", "key": {"X4 HIV strains": {"test_system": "X4 HIV strains", "details": "in vitro and in vivo in clinical trials in humans; cited from earlier work"}, "[1]": {"test_system": "acute myeloid leukaemia (AML)", "details": "Mozobil pre-conditioning prior to MEC chemotherapy; patients available for first follow-up evaluation; cited from earlier work"}, "[2]": {"test_system": "Th2-mediated inflammatory response", "details": "Hu et al, 2006; cited from earlier work"}, "[3]": {"test_system": "CXCR4 expressing cell lines", "details": "range of CXCR4 expressing cell lines; cited from earlier work"}, "[4]": {"test_system": "AML and lymphoma tumor xenograft models", "details": "multiple AML and lymphoma tumor xenograft models; cited from earlier work"}}, "data": [{"compound": "c1cc(CN2CCCNCCNCCCNCC2)ccc1CN1CCCNCCNCCCNCC1", "note": "[AMD3100, plerixafor]", "values": [{"measurement": "inhibition of entry of X4 HIV strains", "setting": "X4 HIV strains", "value": "very high efficacy"}, {"measurement": "complete remission (CR or CRi)", "setting": "[1]", "value": "50% of patients"}]}, {"compound": "c1ccc(CNCc2ccc(CN3CCCNCCNCCCNCC3)cc2)nc1", "note": "[AMD3465]", "values": [{"measurement": "effect on Th2-mediated inflammatory response", "setting": "[2]", "value": "abrogate the Th2-mediated inflammatory response"}]}, {"compound": "MDX-1338: anti-human CXCR4-specific, fully human monoclonal antibody from Medarex; an IgG4", "values": [{"measurement": "induction of apoptosis", "setting": "[3]", "value": "induces apoptosis"}, {"measurement": "anti-tumor activity", "setting": "[4]", "value": "has anti-tumor activity"}]}]}
